We go through one compound from patent US8889591B2, “Herbicidal compositions comprising 4-amino-3-chloro-5-fluoro-6-(4-chloro-2-fluoro-3-methoxyphenyl)pyridine-2-carboxylic acid or a derivative thereof and bromobutide, daimuron, oxaziclomefone or pyributicarb” (Dow Agrosciences LLC, priority 2012, dated 2014).

The subject of one assay is SCPJU. Briefly: Postemergence foliar-applied greenhouse weed control, direct-seeded rice system. The assay is classed as in vivo, Schoenoplectus juncoides (Roxb.) Palla. The text has this:
Seeds or nutlets of the desired test plant species were planted in a soil matrix prepared by mixing a loam or sandy loam soil (e.g., 28.6 percent silt, 18.8 percent clay, and 52.6 percent sand, with a pH of about 5.8 and an organic matter content of about 1.8 percent) and calcareous grit in an 80 to 20 ratio. The soil matrix was contained in plastic pots with a volume of 1 quart and a surface area of 83.6 square centimeters (cm^2). When required to ensure good germination and healthy plants, a fungicide treatment and/or other chemical or physical treatment was applied. The plants were grown for 8-22 days in a greenhouse with an approximate 14 h photoperiod which was maintained at about 29° C. during the day and 26° C. during the night. Nutrients (Peters Excel® 15-5-15 5-Ca 2-Mg and iron chelate) were applied in the irrigation solution as needed and water was added on a regular basis. Supplemental lighting was provided with overhead metal halide 1000-Watt lamps as necessary. The plants were employed for testing when they reached the first through fourth true leaf stage. […]
Treatment requirements were calculated based upon the rates being tested, the concentration of active ingredient or acid equivalent in the formulation, and a 12 mL application volume at a rate of 187 L/ha.
For treatments comprised of formulated compounds, measured amounts of compounds were placed individually in 25 mL glass vials and diluted in a volume of 1.25% (v/v) Agri-Dex® crop oil concentrated to obtain 12× stock solutions. […]
For treatments comprised of formulated and technical compounds, weighed amounts of the technical materials were placed individually in 25 mL glass vials and dissolved in a volume of 97:3 v/v acetone/DMSO to obtain 12× stock solutions, and measured amounts of the formulated compounds were placed individually in 25 mL glass vials and diluted in a volume of 1.5% (v/v) crop oil concentrate or water to obtain 12× stock solutions. […]

The subject of another assay is ECHOR. Briefly: In-water applied greenhouse weed control, transplanted paddy rice system. The following applies: in-water application. Format: in vivo, Echinochloa oryzoides (Ard.) Fritsch. On the procedure: Weed seeds or nutlets of the desired test plant species were planted in puddled soil (mud) prepared by mixing a shredded, non-sterilized mineral soil (50.5 percent silt, 25.5 percent clay, and 24 percent sand, with a pH of about 7.6 and an organic matter content of about 2.9 percent) and water at a 1:1 volumetric ratio. The prepared mud was dispensed in 365 mL aliquots into 16-ounce (oz.) non-perforated plastic pots with a surface area of 86.59 square centimeters (cm^2) leaving a headspace of 3 centimeters (cm) in each pot. Mud was allowed to dry overnight prior to planting or transplanting. Rice seeds were planted in Sun Gro MetroMix® 306 planting mixture, which typically has a pH of 6.0 to 6.8 and an organic matter content of about 30 percent, in plastic plug trays. Seedlings at the second or third leaf stage of growth were transplanted into 840 mL of mud contained in 32-oz. non-perforated plastic pots with a surface area of 86.59 cm^2 4 days prior to herbicide application. The paddy was created by filling the headspace of the pots with 2.5 to 3 cm of water. When required to ensure good germination and healthy plants, a fungicide treatment and/or other chemical or physical treatment was applied. The plants were grown for 4-22 days in a greenhouse with an approximate 14 h photoperiod which was maintained at about 29° C. during the day and 26° C. during the night. Nutrients were added as Osmocote® (19:6:12, N:P:K+ minor nutrients) at 2 g per 16-oz. pot and 4 g per 32-oz. pot. Water was added on a regular basis to maintain the paddy flood, and supplemental lighting was provided with overhead metal halide 1000-Watt lamps as necessary. The plants were employed for testing when they reached the first through fourth true leaf stage.
Treatments consisted of the acid or esters of 4-amino-3-chloro-5-fluoro-6-(4-chloro-2-fluoro-3-methoxy-phenyl)pyridine-2-carboxylic acid (compound A) each formulated as an SC and various herbicidal components alone and in combination. Forms of compound A were applied on an acid equivalent basis.
Other herbicidal components were applied on an active ingredient basis and included daimuron formulated as an EC, bromobutide (technical grade material), and oxaziclomefone (technical grade material).
Treatment requirements for each compound or herbicidal component were calculated based upon the rates being tested, the concentration of active ingredient or acid equivalent in the formulation, an application volume of 2 mL per component per pot, and an application area of 86.59 cm^2 per pot.
For formulated compounds, a measured amount was placed in an individual 100 or 200 mL glass vial and was dissolved in a volume of 1.25% (v/v) Agri-Dex® crop oil concentrate to obtain application solutions.
For technical grade compounds, a weighed amount was placed in an individual 100 to 200 mL glass vial and was dissolved in a volume of acetone to obtain concentrated stock solutions. […] The concentrated stock solutions obtained were diluted with an equivalent volume of an aqueous mixture containing 2.5% (v/v) crop oil concentrate so that the final application solutions contained 1.25% (v/v) crop oil concentrate.
Applications were made by injecting, with a pipetter, appropriate amounts of the application solutions, individually and sequentially, into the aqueous layer of the paddy. Control plants were treated in the same manner with the solvent blank. Applications were made so that all treated plant material received the same concentrations of acetone and crop oil concentrate.
The treated plants and control plants were placed in a greenhouse as described above and water was added as needed to maintain a paddy flood. After approximately 3 weeks the condition of the test plants as compared with that of the untreated plants was determined visually and scored on a scale of 0 to 100 percent where 0 corresponds to no injury or growth inhibition and 100 corresponds to complete kill. […]

The structures appear in SMILES notation.

Turning to `COc1c(Cl)ccc(-c2nc(C(=O)OCc3ccccc3)c(Cl)c(N)c2F)c1F` [Compound A Benzyl Ester], the results for the “Visual Weed Control (%) - 22 DAA SCPJU Obs” value in the assay with SCPJU (Compound A Benzyl Ester 4.38 gae/ha alone) and in the assay with SCPJU (Compound A Benzyl Ester 8.75 gae/ha alone) were 75% and 80%, respectively. Also, the “Visual Weed Control (%) - 21 DAA ECHOR Obs” value in the assay on ECHOR (Compound A Benzyl Ester 8 gae/ha alone) is 8%; in the assay on ECHOR (Compound A Benzyl Ester 16 gae/ha alone), 5%; in the assay with ECHOR (Compound A Benzyl Ester 32 gae/ha alone), 13%.
